# Measured values reported in ChEMBL document CHEMBL1201862, “PubChem BioAssay data set” (2004).
# Calls of active or inactive are those of the source.
# Columns and labels:
# [1] = target: Genome polyprotein (dengue virus type 2, UniProt P29990); test: Dengue-2 NS5 methyltransferase inhibitors, primary screen, biochemical, confirmation dose response (AID 588689); assay type: functional
# [2] = target: FAD-linked sulfhydryl oxidase ALR (Homo sapiens, UniProt P55789); test: inhibitors of human ALR sulfhydryl oxidase, dose response, biochemical, H2O2 detection, luminescence, cherry-pick (AID 493248)
# [3] = target: T1, Polyadenylate-binding protein 1 (Homo sapiens, UniProt P11940); test: PABP1 MLLE–PAM2 interaction inhibitors, dose response, miRNA deadenylation inhibitor project, biochemical, fluorescence polarization, Cy5-PAM2 peptide, secondary (AID 602260); assay type: functional; details: read-out: IC50_Mean
# [4] = target: T1, Polyadenylate-binding protein 1; test: PABP1 MLLE–PAM2 binding inhibitor potency, dose response, biochemical, fluorescence polarization, FITC-PAM2 peptide (AID 602259); assay type: functional; details: read-out: IC50_Mean
# [5] = test system: BJ; test: cytotoxicity toward BJ-TERT fibroblasts, dose response, cell-based, RAS-independent, luminescence (AID 1933); assay type: functional; details: Homo sapiens
# [6] = test system: BJ; test: cells; assay type: functional, cell-based; details: Homo sapiens
# [7] = test system: BJ; test: cytotoxicity toward BJ-TERT-LT-ST fibroblasts, dose response, cell-based, RAS-independent, luminescence (AID 1935); assay type: functional; details: Homo sapiens;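 also: BJ fibroblasts immortalized with TERT plus LT and ST oncogenes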
# [8] = cytotoxicity toward DRD oncogenic fibroblasts, dose response, cell-based, non-viral oncogenic, luminescence (AID 1934); assay type: functional; details: Homo sapiens
# [9] = inhibitors of intracellular T. cruzi replication, confirmation, NIH3T3 host cells, beta-gal luminescence (AID 2044); assay type: functional, cell-based;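 also: intracellular parasites grown in NIH/3T3 mouse fibroblasts as host cells; luminescent beta-galactosidase reporter signal from transgenic T. cruzi replicating inside host cells; inhibitors lower the luminescence signal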
# [10] = cytotoxicity toward NIH3T3 fibroblasts, dose response, counter-screen, cell-based, ATP luminescence, mouse fibroblasts (AID 2010); assay type: functional;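 also: cells exposed to compound for about 90 hours before reading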
# [11] = target: T2, Replicative DNA helicase DnaB (Mycobacterium tuberculosis, UniProt P9WMR3); test: DnaB intein splicing inhibitors, dose response, biochemical, cell-free fluorescence (AID 449749); assay type: functional
# T2 sequence (P9WMR3 whole entry): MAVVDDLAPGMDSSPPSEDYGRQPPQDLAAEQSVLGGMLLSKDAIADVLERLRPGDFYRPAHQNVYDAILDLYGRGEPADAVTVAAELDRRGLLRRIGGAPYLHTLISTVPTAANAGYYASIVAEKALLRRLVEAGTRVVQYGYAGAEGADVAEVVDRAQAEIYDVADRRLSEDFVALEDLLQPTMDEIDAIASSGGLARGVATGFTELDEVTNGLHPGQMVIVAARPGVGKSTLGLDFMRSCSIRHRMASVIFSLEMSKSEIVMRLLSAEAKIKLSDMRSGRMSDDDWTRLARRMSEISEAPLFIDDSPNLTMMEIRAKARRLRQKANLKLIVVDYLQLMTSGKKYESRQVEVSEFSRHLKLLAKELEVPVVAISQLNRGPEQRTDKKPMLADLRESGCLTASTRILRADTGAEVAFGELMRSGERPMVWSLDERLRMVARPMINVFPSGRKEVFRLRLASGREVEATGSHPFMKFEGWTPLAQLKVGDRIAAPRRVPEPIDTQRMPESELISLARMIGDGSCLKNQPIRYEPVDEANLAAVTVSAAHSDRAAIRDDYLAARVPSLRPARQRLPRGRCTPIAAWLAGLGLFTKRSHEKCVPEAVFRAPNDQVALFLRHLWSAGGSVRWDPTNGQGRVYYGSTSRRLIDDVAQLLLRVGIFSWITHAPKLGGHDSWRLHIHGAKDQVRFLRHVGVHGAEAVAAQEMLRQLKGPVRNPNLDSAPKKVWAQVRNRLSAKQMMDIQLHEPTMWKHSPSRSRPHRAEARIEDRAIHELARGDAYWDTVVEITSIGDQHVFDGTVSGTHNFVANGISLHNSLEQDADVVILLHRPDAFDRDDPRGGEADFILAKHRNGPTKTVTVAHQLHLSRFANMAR
# [12] = target: T3, Protein RecA (Mycobacterium tuberculosis, UniProt P9WHJ3); test: Fluorescence Cell-Free Homogeneous Dose Retest to Identify Inhibitors of RecA-Intein Splicing Activity. [Related pubchem assays (depositor defined):AID2097, AID2223, AID489010, AID492950]; assay type: functional
# T3 sequence (P9WHJ3 whole entry): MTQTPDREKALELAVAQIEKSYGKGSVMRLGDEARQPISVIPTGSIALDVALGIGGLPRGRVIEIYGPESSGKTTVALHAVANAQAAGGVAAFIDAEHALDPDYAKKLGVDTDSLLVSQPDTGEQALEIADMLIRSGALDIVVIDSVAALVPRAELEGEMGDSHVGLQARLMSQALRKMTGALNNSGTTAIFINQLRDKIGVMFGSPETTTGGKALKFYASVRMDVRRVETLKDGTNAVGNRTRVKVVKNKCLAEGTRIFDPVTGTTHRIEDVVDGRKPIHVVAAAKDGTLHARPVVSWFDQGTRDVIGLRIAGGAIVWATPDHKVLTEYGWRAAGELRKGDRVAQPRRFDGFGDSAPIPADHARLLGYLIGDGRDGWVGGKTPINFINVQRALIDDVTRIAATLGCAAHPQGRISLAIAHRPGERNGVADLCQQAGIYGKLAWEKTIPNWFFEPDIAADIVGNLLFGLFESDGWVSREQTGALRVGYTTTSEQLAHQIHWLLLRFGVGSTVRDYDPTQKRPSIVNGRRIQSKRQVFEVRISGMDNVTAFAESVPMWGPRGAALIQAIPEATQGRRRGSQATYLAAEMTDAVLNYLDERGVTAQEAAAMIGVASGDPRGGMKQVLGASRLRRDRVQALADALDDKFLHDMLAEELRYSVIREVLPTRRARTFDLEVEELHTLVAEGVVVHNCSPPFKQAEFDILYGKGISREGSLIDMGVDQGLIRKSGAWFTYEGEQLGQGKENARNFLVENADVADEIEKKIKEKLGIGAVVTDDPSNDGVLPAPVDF
# [13] = test system: P388/ADR; test: cells; assay type: functional; details: Mus musculus
# [14] = test system: SN12K1; test: cells; assay type: functional; details: Homo sapiens
# [15] = test system: P388; test: cells; assay type: functional; details: Mus musculus
# [16] = target: T4, Rac GTPase-activating protein 1 (Homo sapiens, UniProt Q9H0H5); test: MgcRacGAP GTPase-activating activity inhibitors, confirmation, biochemical, ADP Hunter fluorescence, primary and confirmatory (AID 624330); assay type: functional
# T4 sequence (Q9H0H5 whole entry): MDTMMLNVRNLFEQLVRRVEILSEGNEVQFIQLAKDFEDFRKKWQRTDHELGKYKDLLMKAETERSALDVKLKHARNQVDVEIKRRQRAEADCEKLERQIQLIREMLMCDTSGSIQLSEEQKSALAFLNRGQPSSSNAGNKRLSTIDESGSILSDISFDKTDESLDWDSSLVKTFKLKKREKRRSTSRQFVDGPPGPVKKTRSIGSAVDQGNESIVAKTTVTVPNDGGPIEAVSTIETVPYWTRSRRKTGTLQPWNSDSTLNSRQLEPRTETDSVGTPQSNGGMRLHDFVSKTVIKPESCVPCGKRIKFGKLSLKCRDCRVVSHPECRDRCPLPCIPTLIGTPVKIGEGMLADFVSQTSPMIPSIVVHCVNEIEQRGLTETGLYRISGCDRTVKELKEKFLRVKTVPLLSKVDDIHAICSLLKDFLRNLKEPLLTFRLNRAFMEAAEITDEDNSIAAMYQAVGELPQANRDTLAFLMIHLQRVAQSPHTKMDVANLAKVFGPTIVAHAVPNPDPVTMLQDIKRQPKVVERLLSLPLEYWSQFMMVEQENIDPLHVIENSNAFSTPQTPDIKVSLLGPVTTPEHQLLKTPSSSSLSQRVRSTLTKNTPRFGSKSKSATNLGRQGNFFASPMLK
# T1 sequence (P11940 whole entry): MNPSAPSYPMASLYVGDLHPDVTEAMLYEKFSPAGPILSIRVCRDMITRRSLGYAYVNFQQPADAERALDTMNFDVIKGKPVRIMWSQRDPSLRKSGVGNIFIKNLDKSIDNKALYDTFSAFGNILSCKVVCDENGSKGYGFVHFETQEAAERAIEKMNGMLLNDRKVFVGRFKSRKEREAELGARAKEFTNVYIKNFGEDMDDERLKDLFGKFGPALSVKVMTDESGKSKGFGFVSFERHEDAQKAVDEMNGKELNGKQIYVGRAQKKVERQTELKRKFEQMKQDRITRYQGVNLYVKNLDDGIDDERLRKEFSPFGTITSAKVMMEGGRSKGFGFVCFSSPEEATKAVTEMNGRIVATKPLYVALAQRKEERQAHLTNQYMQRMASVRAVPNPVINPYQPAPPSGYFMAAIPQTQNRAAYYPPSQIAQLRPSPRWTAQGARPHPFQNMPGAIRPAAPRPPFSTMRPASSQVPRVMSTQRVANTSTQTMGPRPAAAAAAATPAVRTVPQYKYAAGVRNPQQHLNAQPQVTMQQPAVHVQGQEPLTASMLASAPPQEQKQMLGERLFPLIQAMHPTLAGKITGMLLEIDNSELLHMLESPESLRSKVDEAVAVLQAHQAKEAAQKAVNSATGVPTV
# Sequence of Genome polyprotein (P29990 2492-3391 limits assumed): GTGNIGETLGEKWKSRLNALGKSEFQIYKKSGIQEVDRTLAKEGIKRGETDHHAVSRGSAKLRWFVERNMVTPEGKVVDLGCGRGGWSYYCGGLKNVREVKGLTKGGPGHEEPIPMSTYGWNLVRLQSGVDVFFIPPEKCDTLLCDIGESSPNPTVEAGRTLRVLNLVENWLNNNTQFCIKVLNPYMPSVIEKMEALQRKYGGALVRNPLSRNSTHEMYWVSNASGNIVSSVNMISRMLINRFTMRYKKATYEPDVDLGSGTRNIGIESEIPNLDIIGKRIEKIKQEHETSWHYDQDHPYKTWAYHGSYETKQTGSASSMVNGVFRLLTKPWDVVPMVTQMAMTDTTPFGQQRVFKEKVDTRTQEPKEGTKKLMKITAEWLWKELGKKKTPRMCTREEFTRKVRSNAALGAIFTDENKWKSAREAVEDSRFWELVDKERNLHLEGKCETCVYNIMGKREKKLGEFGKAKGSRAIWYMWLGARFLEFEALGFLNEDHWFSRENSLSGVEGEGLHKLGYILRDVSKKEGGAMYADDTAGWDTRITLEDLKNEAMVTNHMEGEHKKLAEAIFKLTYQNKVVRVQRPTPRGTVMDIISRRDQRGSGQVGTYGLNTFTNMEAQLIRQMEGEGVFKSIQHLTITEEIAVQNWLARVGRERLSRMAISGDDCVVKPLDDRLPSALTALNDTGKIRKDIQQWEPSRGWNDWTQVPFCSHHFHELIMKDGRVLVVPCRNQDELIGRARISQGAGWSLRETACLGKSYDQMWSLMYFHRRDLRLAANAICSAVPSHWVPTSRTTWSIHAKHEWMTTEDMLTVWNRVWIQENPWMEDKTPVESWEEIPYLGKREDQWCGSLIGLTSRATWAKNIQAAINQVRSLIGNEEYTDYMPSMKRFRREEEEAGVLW
# Sequence of FAD-linked sulfhydryl oxidase ALR (P55789 whole entry): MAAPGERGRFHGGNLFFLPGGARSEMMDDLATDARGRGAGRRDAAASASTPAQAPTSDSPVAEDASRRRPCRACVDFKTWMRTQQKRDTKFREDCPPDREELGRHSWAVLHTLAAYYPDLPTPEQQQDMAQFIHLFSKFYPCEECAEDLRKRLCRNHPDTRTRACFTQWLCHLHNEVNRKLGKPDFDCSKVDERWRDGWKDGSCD
structure (smiles),measurement,setting,value
O=C(O)c1ccccc1-c1ccccc1C(=O)Nc1ccc2c(c1)C(=O)c1ccccc1-2,IC50,[1],58.9 µM (active)
C[C@H](N)CN1CCc2ccc(Br)cc21,AC50,[2],0.84 µM (active)
COc1ccccc1-n1c(N)c(C(N)=O)sc1=S,IC50,[3],> 66 µM (inactive)
same,IC50,[4],> 66 µM (inactive)
COc1ccc(NC(=O)C(=O)NCCC2CCCCN2S(=O)(=O)c2ccccc2)cc1 (stereo not drawn),EC50,[5],22.8 µM (active)
same,EC50,[6],19.8 µM (active)
same,EC50,[7],23.4 µM (active)
same,EC50,[8],13.5 µM (inconclusive)
Nc1cccc(C(=O)Nc2ccc3[nH]c(-c4cccnc4)nc3c2)c1,AC50,[2],1.07 µM (active)
C[C@H](NS(=O)(=O)c1ccc2c(c1)OCCCO2)C(=O)N1CCN(c2ccc(F)cc2)CC1,IC50,[3],> 66 µM (inactive)
same,IC50,[4],> 66 µM (inactive)
CCN(CC)c1ccc(CNCCc2ccccc2F)cc1,AC50,[2],1.36 µM (active)
CCN(CC)S(=O)(=O)c1ccc(N2CCOCC2)c(NC(=O)CCC2CCCCC2)c1,IC50,[3],> 66 µM (inactive)
same,IC50,[4],> 66 µM (inactive)
Cc1cc([N+](=O)[O-])ccc1N1C(=O)c2ccc(C(=O)Nc3ccccc3C(=O)O)cc2C1=O,AC50,[2],57 µM (active)
same,IC50,[1],67.9 µM (active)
COc1ccccc1NS(=O)(=O)c1cc(NC(=O)Nc2cccc(C)c2)ccc1N1CCCCC1,EC50,[9],2.16 µM (active)
same,EC50,[10],> 60 µM (not active)
same,IC50,[3],> 66 µM (inactive)
same,IC50,[4],> 66 µM (inactive)
CC(=O)Nc1ccc(Nc2ccc3c4c(cc(=O)n3C)-c3ccccc3C(=O)c24)cc1,IC50,[3],> 66 µM (inactive)
same,IC50,[4],59.4 µM (inactive)
CC(=O)Oc1ccc(/C=C2/C(=O)N(c3ccccc3)N=C2C)cc1,AC50,[11],2.76 µM (active)
same,EC50,[12],2.72 µM (active)
same,IC50,[1],56 µM (active)
CCCn1cnc2cc(NCc3ccccc3O)ccc21,AC50,[2],3.92 µM (active)
CCn1c(-c2cc(Br)ccc2O)n[nH]c1=S,AC50,[2],4.27 µM (active)
C[C@@H]1CCC2[C@](C)(CO)[C@@H](O)CC[C@]2(C)[C@@]12CC[C@@](CO)(CC(=O)O)O2 (stereo partly drawn),IC50,[3],> 66 µM (inactive)
same,IC50,[4],> 66 µM (inactive)
C=CCn1c2ccccc2c2c(C)c3cnccc3c(C)c21,GI50,[13],11.2 µM (inactive)
same,GI50,[14],8.41 µM (inactive)
same,GI50,[15],3.34 µM (inactive)
COc1cc(/C=C(/C#N)C(N)=O)ccc1O,GI50,[13],> 100 µM (inactive)
same,GI50,[14],> 100 µM (inactive)
same,GI50,[15],> 100 µM (inactive)
C=CC12CN(C)C3C4COC(CC41)C1(C(=O)Nc4ccccc41)C32 (stereo not drawn),GI50,[13],136 µM (inactive)
same,GI50,[14],185 µM (inactive)
same,GI50,[15],63.1 µM (inactive)
CC1CCC2(C(=O)O)CCC3(C)C(=CCC4C5(C)CCC(O)C(C)(C)C5CCC43C)C2C1C (stereo not drawn),GI50,[13],2.1 µM (inactive)
same,GI50,[14],4.12 µM (inactive)
same,GI50,[15],2.27 µM (inactive)
c1cc(-c2ccoc2)n2ccnc2c1,IC50,[3],> 66 µM (inactive)
same,IC50,[4],> 66 µM (inactive)
N/C(=N\O)N/N=C\c1c(O)cc(O)cc1O,GI50,[13],17.5 µM (inactive)
same,GI50,[14],15.7 µM (inactive)
same,GI50,[15],> 44.4 µM (inactive)
CC1=C2C(O)C(C(C)C(=O)NCC(C)C)CCC2(C)C=CC1=O (stereo not drawn),GI50,[13],> 100 µM (inactive)
same,GI50,[14],> 100 µM (inactive)
same,GI50,[15],> 100 µM (inactive)
Cc1[nH]c(=O)[nH]c(=O)c1/C=C/C(=O)NC(CO)C[S+]([O-])Cc1ccccc1 (stereo not drawn),GI50,[13],> 300 µM (inactive)
same,GI50,[14],> 300 µM (inactive)
same,GI50,[15],> 179 µM (inactive)
O=C1c2ccccc2OCC1/C=N/O (stereo not drawn),GI50,[14],40.5 µM (inactive)
same,GI50,[15],18.9 µM (inactive)
COc1cc(-c2ccc(/N=N/c3ccc4c(S(=O)(=O)O)cc(S(=O)(=O)O)c(N)c4c3O)c(OC)c2)ccc1/N=N/c1ccc2c(S(=O)(=O)O)cc(S(=O)(=O)O)c(N)c2c1O,GI50,[13],> 100 µM (inactive)
same,GI50,[14],> 100 µM (inactive)
same,GI50,[15],> 100 µM (inactive)
CC1[C@@H]2CC=C3[C@H]4CCC5Cc6nc7c(nc6C[C@@]5(C)C4CC(=O)[C@]32CO[C@]12OC(C)(C)CC2O)CC1CC[C@@H]2C3=C[C@H]4O[C@@]5(O[C@@](C)(CO)C[C@@H]5O)C(C)[C@@]4(O)[C@]3(C)[C@@H](O)CC2[C@]1(C)C7 (stereo partly drawn),GI50,[13],0.00152 µM (active)
same,GI50,[14],0.000365 µM (active)
same,GI50,[15],0.000365 µM (active)
CC/C(C)=N/Nc1nc(-c2cc3cccc(OC)c3oc2=O)cs1,AC50,[2],0.091 µM (active)
COc1cc(/C=N/NC(=O)CCNC(=O)c2ccccc2Cl)ccc1O,AC50,[2],3.1 µM (active)
same,IC50,[16],29 µM (active)
